ChEMBL document CHEMBL1201862, “PubChem BioAssay data set” (2004)
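96-well plates; 48 h exposure; 5 concentrations. Endpoints by linear interpolation between flanking doses. Not reached: highest tested concentration assigned. The concentration for 50% growth inhibition is given as GI50.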 The source made the active and inactive calls. No stated cut-off is given here; in the data, active = GI50 up to about 1.1 µM and inactive = higher.

Legend:
Assay in all cases: inhibition of tumour cell growth, NCI panel, 48 h
[1] = tested on: M14
[2] = tested on: K562
[3] = tested on: Malme-3M
[4] = tested on: SN12C
[5] = tested on: SF-268
[6] = tested on: HOP-62
[7] = tested on: HOP-92
[8] = tested on: ACHN
[9] = tested on: KM-20L2
[10] = tested on: EKVX
[11] = tested on: SR
[12] = tested on: NCI-H23
[13] = tested on: A498
[14] = tested on: UACC-62
[15] = tested on: HT-29
[16] = tested on: KM12
[17] = tested on: PC-3
[18] = tested on: DU-145
[19] = tested on: Hs-578T
[20] = tested on: BT-549

| SMILES | GI50 [1] | GI50 [2] | GI50 [3] | GI50 [4] | GI50 [5] | GI50 [6] | GI50 [7] | GI50 [8] | GI50 [9] | GI50 [10] | GI50 [11] | GI50 [12] | GI50 [13] | GI50 [14] | GI50 [15] | GI50 [16] | GI50 [17] | GI50 [18] | GI50 [19] | GI50 [20] |
| --- | --- | --- | --- | --- | --- | --- | --- | --- | --- | --- | --- | --- | --- | --- | --- | --- | --- | --- | --- | --- |
| COc1ccc(-c2[nH]c3ccccc3c2CCNS(=O)(=O)c2ccc(C)cc2)cc1 | > 10 µM (inactive) | 5.06 µM (inactive) | > 10 µM (inactive) | > 10 µM (inactive) | > 10 µM (inactive) | > 10 µM (inactive) | > 10 µM (inactive) | > 8.59 µM (inactive) | > 8.47 µM (inactive) | > 7.93 µM (inactive) | > 10 µM (inactive) | > 10 µM (inactive) | > 10 µM (inactive) | > 8.39 µM (inactive) | 6.35 µM (inactive) | 6.82 µM (inactive) |  |  |  |  |
| Nc1nc2c(ncn2C2OC(CO)C(O)C2O)c(=O)o1 (stereo unspecified) | > 100 µM (inactive) | > 21.9 µM (inactive) | > 100 µM (inactive) | > 100 µM (inactive) | > 100 µM (inactive) | > 100 µM (inactive) | > 100 µM (inactive) | > 83.8 µM (inactive) | > 55 µM (inactive) | > 100 µM (inactive) |  | > 84.1 µM (inactive) | > 100 µM (inactive) | > 100 µM (inactive) | 26.4 µM (inactive) | > 100 µM (inactive) | > 100 µM (inactive) | > 100 µM (inactive) |  |  |
| CCOC(=O)N1CCc2cc(OC)c(OC)c3c2C1CC3=O (stereo unspecified) | > 100 µM (inactive) | > 100 µM (inactive) | > 100 µM (inactive) | > 100 µM (inactive) | > 100 µM (inactive) | > 100 µM (inactive) | > 100 µM (inactive) | > 100 µM (inactive) | > 100 µM (inactive) |  | > 100 µM (inactive) |  | > 100 µM (inactive) | > 100 µM (inactive) | > 100 µM (inactive) | > 100 µM (inactive) |  |  |  |  |
| OCCN1CCN2C=C(C3CCCC4N(CCO)CCN34)CCC21 (stereo unspecified) | 44.7 µM (inactive) | 11.6 µM (inactive) | > 79.8 µM (inactive) | 39.5 µM (inactive) | 49.8 µM (inactive) | > 100 µM (inactive) | > 60.8 µM (inactive) | > 49.2 µM (inactive) | > 100 µM (inactive) | > 69.7 µM (inactive) | 5.68 µM (inactive) | 43 µM (inactive) | > 100 µM (inactive) | 28.1 µM (inactive) | 68.9 µM (inactive) | > 95.7 µM (inactive) |  |  |  |  |
| CC(=O)Nc1ccc(S(=O)(=O)NN(C)S(=O)(=O)c2ccc(C)cc2)cc1 | > 100 µM (inactive) | > 100 µM (inactive) | > 100 µM (inactive) | > 100 µM (inactive) | > 100 µM (inactive) | > 100 µM (inactive) | > 100 µM (inactive) | > 100 µM (inactive) | > 100 µM (inactive) | > 100 µM (inactive) | > 100 µM (inactive) | > 100 µM (inactive) | > 100 µM (inactive) | > 100 µM (inactive) | > 100 µM (inactive) | > 100 µM (inactive) |  |  |  |  |
| Cc1ccc(C)c(NC(=O)CC/C(=N\NC(=O)C(N)=O)C(C)C(=O)c2ccc(O)cc2)c1 (stereo unspecified) | > 100 µM (inactive) | > 100 µM (inactive) | > 100 µM (inactive) | > 100 µM (inactive) | > 100 µM (inactive) | > 100 µM (inactive) | > 100 µM (inactive) | > 100 µM (inactive) | > 100 µM (inactive) | > 100 µM (inactive) | > 100 µM (inactive) | > 100 µM (inactive) |  | > 100 µM (inactive) | > 100 µM (inactive) | > 100 µM (inactive) |  |  |  |  |
| CCCCCCCCCCCCCC(=O)OCC1OC(n2cc(F)c(=O)[nH]c2=O)C(NC(=O)OCc2ccccc2)C(OC(=O)CCCCCCCCCCCCC)C1O (stereo unspecified) | > 100 µM (inactive) | > 100 µM (inactive) | > 100 µM (inactive) | > 100 µM (inactive) | > 100 µM (inactive) | > 100 µM (inactive) | > 100 µM (inactive) | > 100 µM (inactive) | > 100 µM (inactive) | > 100 µM (inactive) | > 100 µM (inactive) | > 100 µM (inactive) | > 100 µM (inactive) | > 100 µM (inactive) | > 100 µM (inactive) | > 100 µM (inactive) |  |  |  |  |
| Cc1ccc(S(=O)(=O)N2CCC3(C(/C=C/c4ccccc4)=Nc4ccccc43)C2c2ccccc2)cc1 (stereo unspecified) | > 100 µM (inactive) | 21.3 µM (inactive) | > 100 µM (inactive) | > 100 µM (inactive) | > 100 µM (inactive) | 63.5 µM (inactive) | > 100 µM (inactive) | > 100 µM (inactive) | > 100 µM (inactive) | > 100 µM (inactive) | > 100 µM (inactive) | > 100 µM (inactive) | > 100 µM (inactive) | > 100 µM (inactive) | > 100 µM (inactive) | > 100 µM (inactive) |  |  |  |  |
| N#C/C(=C1\OC(=N)C(c2ccc(Cl)cc2)=C1O)c1ccc(Cl)cc1 | 15.2 µM (inactive) | 23.5 µM (inactive) | 19.1 µM (inactive) | 11 µM (inactive) | 36.6 µM (inactive) | 19.1 µM (inactive) | 17.9 µM (inactive) | 17.6 µM (inactive) | 18.4 µM (inactive) | 17.7 µM (inactive) | 18.7 µM (inactive) | 13.6 µM (inactive) | 17.2 µM (inactive) | 14.2 µM (inactive) | 18.9 µM (inactive) | 16.6 µM (inactive) |  |  |  |  |
| C=CC[C@H]1C[C@@]2(C)OC[C@H](C(C)C)N2C1=O |  | > 100 µM (inactive) | > 100 µM (inactive) | > 100 µM (inactive) | > 100 µM (inactive) | > 100 µM (inactive) | > 100 µM (inactive) | > 100 µM (inactive) | > 100 µM (inactive) | > 100 µM (inactive) | > 100 µM (inactive) | > 100 µM (inactive) | > 100 µM (inactive) | > 100 µM (inactive) | > 100 µM (inactive) | > 100 µM (inactive) |  |  |  |  |
| CC(=O)OC[C@]1(O)CC[C@@]23CC1C[C@@H]2CCC1C(C)(C)CCC[C@@]13C (stereo partly specified) | 13.9 µM (inactive) | 4.76 µM (inactive) | 15.6 µM (inactive) | 12.2 µM (inactive) | 14.9 µM (inactive) | 17.4 µM (inactive) | 14.4 µM (inactive) | 15.7 µM (inactive) | 17.3 µM (inactive) |  | 8.89 µM (inactive) | 12.8 µM (inactive) |  | 13.4 µM (inactive) | 13 µM (inactive) | 13 µM (inactive) |  |  |  |  |
| CC(=O)NC1C(OCc2ccccc2)OC(CO)C(O)C1OC(C)C(=O)NC(C)C(=O)N[C@@H](CCC(=O)OCCCNC1c2ccccc2Nc2cccc([N+](=O)[O-])c21)C(N)=O (stereo partly specified) | < 0.01 µM (active) | < 0.01 µM (active) | < 0.01 µM (active) | < 0.01 µM (active) | < 0.01 µM (active) | < 0.01 µM (active) | < 0.01 µM (active) | < 0.01 µM (active) | < 0.01 µM (active) | 0.0135 µM (active) | < 0.01 µM (active) | < 0.01 µM (active) | < 0.01 µM (active) | < 0.01 µM (active) | < 0.01 µM (active) | < 0.01 µM (active) | 0.0266 µM (active) | 0.0314 µM (active) | 0.0216 µM (active) |  |
| COC(=O)C1[C@@H](C(=O)OC)C(=O)O[C@H]1c1cc(OC)c(OC)c(OC)c1 (stereo partly specified) | > 100 µM (inactive) | > 100 µM (inactive) | > 100 µM (inactive) | > 100 µM (inactive) | > 100 µM (inactive) | > 100 µM (inactive) | > 100 µM (inactive) | > 100 µM (inactive) | > 100 µM (inactive) |  | > 100 µM (inactive) | > 100 µM (inactive) | 48.5 µM (inactive) | > 100 µM (inactive) | > 100 µM (inactive) | > 100 µM (inactive) |  |  |  |  |
| CCCCCCCCCCCCCCCCCC[N+](C)(C)Cc1ccc(C[N+](C)(C)CCCCCCCCCCCCCCCCCC)cc1 | 17.3 µM (inactive) | 45.1 µM (inactive) | 24.3 µM (inactive) | 10.9 µM (inactive) | 21.7 µM (inactive) | 4.41 µM (inactive) | 5.26 µM (inactive) | 10.4 µM (inactive) | 31.3 µM (inactive) | 18.9 µM (inactive) | 2.39 µM (inactive) | 4.09 µM (inactive) | 22.8 µM (inactive) | 21.9 µM (inactive) | 18.7 µM (inactive) | 12.4 µM (inactive) |  |  |  |  |
| CCCCCCCCCCCCC(O)C1CCC(C(O)CCCCC(O)CCCCCC2CC(CC(C)=O)C(=O)O2)O1 (stereo unspecified) | 7.29 µM (inactive) | 0.0186 µM (active) | 0.94 µM (active) | 4.83 µM (inactive) | 3.33 µM (inactive) | 4.58 µM (inactive) | 0.986 µM (active) | 7.85 µM (inactive) | 4.29 µM (inactive) | 3.25 µM (inactive) | 1.34 µM (inactive) | < 0.01 µM (active) | 4.52 µM (inactive) | 1.7 µM (inactive) | 3.5 µM (inactive) | 1.63 µM (inactive) | 1.68 µM (inactive) | 3.86 µM (inactive) | 1.69 µM (inactive) | 2.79 µM (inactive) |
